For 18 compounds, IC50 and EC50 results are on record in patent US10364256B2 (GlaxoSmithKline Intellectual Property Development Limited, priority 2015, dated 2019).

Like-named read-outs stand apart in the source and are kept apart here.

Experiment [1] addresses T1, full length Keap1 protein / full length NRF2 protein (Homo sapiens, UniProt Q14145).
T1 construct: full length NRF2 protein and full length Keap1 protein (Keap1 exists a dimer) are used; His
Description: NRF2-Keap1 TR-FRET Low Protein Assay. It counts as binding. The note with it: 1.25 nM Keap1 FlagHis and 2.5 nM biotin-NRF2 added. Put shortly: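 Flag-tagged full-length Keap1 was preincubated with compound (3-fold series) for 2.25 h at 37 °C in Tris pH 8.0/MgCl2/NaCl/BSA/DTT/CHAPS. Biotin-Avi-NRF2 (added at 2.5 nM) was then bound for 1.25 h at 4 °C. Eu-streptavidin/anti-Flag-APC TR-FRET (665/615 nm) was read after 1 h at RT, and pIC50 came from a four-parameter fit.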
(In general: Time-resolved FRET reads energy transfer from a long-lived donor to a nearby acceptor.)

Experiment [2] has as its system NQO1 specific enzyme activity in BEAS-2B cells (marker for NRF2 activation). The experiment is described as follows: BEAS-2B NQO1 MTT Assay. It counts as cell-based. The note with it: Homo sapiens, compound incubated 48 hours, read-out: EC50 (NQO1 specific enzyme activity induction). Put shortly: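 BEAS-2B cells treated with compound for 48 h at 37 °C, then lysed; NQO1 activity in lysates measured kinetically by MTT reduction at A570 over 30 min. pEC50 from 3-parameter fit of ΔOD/min versus log concentration; lysate also taken for Cell Titer Glo.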

Experiment [3] addresses T2, Keap1 Kelch domain (321-609) / TAMRA-labeled 16mer NRF2 peptide (ETGE motif) (Homo sapiens, UniProt Q14145).
T2 construct: the Kelch domain (321-609) of Keap1 is used
The experiment is described as follows: NRF2-Keap1 FP Assay (Keap1 Kelch fluorescence polarization). To be noted: 20 nM Keap1 (321-609), 8 nM Tamra labeled peptide. Format: binding. Put shortly: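 Compound dilutions (3-fold) were incubated 1 hr at room temperature with 20 nM Keap1 Kelch (321-609) and 8 nM TAMRA-labeled ETGE 16mer peptide. Buffer was 50 mM Tris pH 8.0, 100 mM NaCl, 5 mM MgCl2, 1 mM DTT, 2 mM CHAPS, 0.005% BSA. Fluorescence polarization (mP) was normalized to controls and fitted with a four-parameter equation to give pIC50.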

T2 sequence (Q14145 321-609): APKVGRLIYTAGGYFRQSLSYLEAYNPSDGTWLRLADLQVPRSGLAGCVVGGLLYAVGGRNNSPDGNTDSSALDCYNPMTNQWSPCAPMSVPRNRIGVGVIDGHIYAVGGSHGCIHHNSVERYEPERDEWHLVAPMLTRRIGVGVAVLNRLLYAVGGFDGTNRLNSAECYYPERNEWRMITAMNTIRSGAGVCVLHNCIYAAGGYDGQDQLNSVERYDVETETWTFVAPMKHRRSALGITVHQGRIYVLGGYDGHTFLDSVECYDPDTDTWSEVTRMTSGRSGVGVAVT
T1 sequence (Q14145 whole entry): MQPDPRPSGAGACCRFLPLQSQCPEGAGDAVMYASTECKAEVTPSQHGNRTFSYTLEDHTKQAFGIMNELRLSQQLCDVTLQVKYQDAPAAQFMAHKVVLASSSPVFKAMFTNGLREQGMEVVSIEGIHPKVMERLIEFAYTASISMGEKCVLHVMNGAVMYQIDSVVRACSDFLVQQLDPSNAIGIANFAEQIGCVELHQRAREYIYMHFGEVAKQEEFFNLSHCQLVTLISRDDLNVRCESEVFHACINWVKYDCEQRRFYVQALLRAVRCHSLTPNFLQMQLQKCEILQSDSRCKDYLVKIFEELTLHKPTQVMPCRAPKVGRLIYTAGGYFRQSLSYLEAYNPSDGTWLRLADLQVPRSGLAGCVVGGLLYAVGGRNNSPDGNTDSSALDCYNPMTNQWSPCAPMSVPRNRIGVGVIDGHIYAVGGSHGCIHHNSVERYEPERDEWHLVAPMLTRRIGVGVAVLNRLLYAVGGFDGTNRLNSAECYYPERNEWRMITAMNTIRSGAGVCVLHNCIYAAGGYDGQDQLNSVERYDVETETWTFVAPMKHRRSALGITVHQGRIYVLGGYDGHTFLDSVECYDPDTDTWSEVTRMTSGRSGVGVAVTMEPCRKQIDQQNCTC

As for `C[C@H](Oc1cccc(-c2cccc(-n3ncc(C(=O)O)c3[C@@H]3C[C@H]3CCCO)c2)c1)C1CCCCC1` (racemic) [Example 102, 1-(3′-((S)-1-Cyclohexylethoxy)-[1,1′-biphenyl]-3-yl)-5-(trans-2-(3-hydroxypropyl)cyclopropyl)-1H-pyrazole-4-carboxylic Acid], the IC50 in experiment [1] and in experiment [3] was 1000 to 10000 nM each time. In experiment [2], the EC50 (as a rule, the concentration that produces a half-maximal response) is 100 to 1000 nM.

Turning to `C[C@H](Oc1cccc(-c2cccc(-n3ncc(C(=O)O)c3[C@@H]3C[C@H]3c3cnn(C)c3)c2)c1)C1CCCCC1` (racemic) [Example 103, 1-(3′-((S)-1-cyclohexylethoxy)-[1,1′-biphenyl]-3-yl)-5-(trans-2-(1-methyl-1H-pyrazol-4-yl)cyclopropyl)-1H-pyrazole-4-carboxylic Acid], the IC50 in experiment [1] and in experiment [3] was 1000 to 10000 nM each time. Further, the EC50 in experiment [2] lay within 100 to 1000 nM.

Turning to `Cn1cc([C@@H]2C[C@H]2c2c(C(=O)O)cnn2-c2cccc(-c3cccc(/C=C/C4CCCCC4)c3)c2)nn1` (racemic) [Example 113, rac-1-(3′-((E)-2-Cyclohexylvinyl)-[1,1′-biphenyl]-3-yl)-5-(trans-2-(1-methyl-1H-1,2,3-triazol-4-yl)cyclopropyl)-1H-pyrazole-4-carboxylic Acid], the concentration for half-maximal inhibition (IC50) in experiment [1] and in experiment [3] was 100 to 1000 nM each time. Besides, the EC50 in experiment [2] fell in the range of 10 to 100 nM.

For `Cn1cc([C@@H]2C[C@H]2c2c(C(=O)O)cnn2-c2cccc(-c3cccc(CCC4CCCCC4)c3)c2)nn1` (racemic) [Example 114, rac-1-(3′-(2-Cyclohexylethyl)-[1,1′-biphenyl]-3-yl)-5-(-2-(1-methyl-1H-1,2,3-triazol-4-yl)cyclopropyl)-1H-pyrazole-4-carboxylic Acid], the IC50 (usually the point on the concentration scale where inhibition reaches its midpoint) in experiment [1] lay within 10 to 100 nM; in experiment [3], 100 to 1000 nM. The EC50 in experiment [2] lay in the range of 10 to 100 nM.

On to `CCC[C@@H]1CCCCN1C(=O)c1cccc(-c2cccc(-n3ncc(C(=O)O)c3[C@@H]3C[C@H]3c3cc(C)no3)c2)c1F` (racemic) [Example 117, 1-(2′-fluoro-3′-((R)-2-propylpiperidine-1-carbonyl)-[1,1′-biphenyl]-3-yl)-5-(trans-2-(3-methylisoxazol-5-yl)cyclopropyl)-1H-pyrazole-4-carboxylic Acid], for which the IC50 is < 10 nM in experiment [1] and 10 to 100 nM in experiment [3]. The EC50 in experiment [2] lay in the range of 10 to 100 nM.

For the compound `CCC1COc2ccccc2CN1Cc1cccc(-c2cccc(-n3ncc(C(=O)O)c3[C@H]3C[C@@H]3c3cn(C)nn3)c2)c1` (mixture of isomers) [Example 118, 1-(3′-((3-Ethyl-2,3-dihydrobenzo[f][1,4]oxazepin-4(5H)-yl)methyl)-[1,1′-biphenyl]-3-yl)-5-((1,2-trans)-2-(1-methyl-1H-1,2,3-triazol-4-yl)cyclopropyl)-1H-pyrazole-4-carboxylic Acid], the values for the IC50 in experiment [1] and in experiment [3] were < 10 nM and 10 to 100 nM, respectively. In addition, in experiment [2], the EC50 lay within 100 to 1000 nM.

As for `CCC1c2ccccc2OCCN1Cc1cccc(-c2cccc(-n3ncc(C(=O)O)c3[C@H]3C[C@@H]3c3cn(C)nn3)c2)c1` (mixture of isomers) [Example 123, 1-(3′-((5-Ethyl-2,3-dihydrobenzo[f][1,4]oxazepin-4(5H)-yl)methyl)-[1,1′-biphenyl]-3-yl)-5-((1,2-trans)-2-(1-methyl-1H-1,2,3-triazol-4-yl)cyclopropyl)-1H-pyrazole-4-carboxylic Acid], the IC50 in experiment [1] and in experiment [3] was 10 to 100 nM in each case. In addition, the EC50 in experiment [2] is 10 to 100 nM.

With `Cn1cc([C@@H]2C[C@H]2c2c(C(=O)O)cnn2-c2cccc(-c3cccc(CN4Cc5ccccc5CC(C)(C)C4)c3)c2)nn1` (racemic) [Example 126, 1-(3′-((4,4-dimethyl-4,5-dihydro-1H-benzo[c]azepin-2(3H)-yl)methyl)-[1,1′-biphenyl]-3-yl)-5-((1,2-trans)-2-(1-methyl-1H-1,2,3-triazol-4-yl)cyclopropyl)-1H-pyrazole-4-carboxylic Acid], the IC50 in experiment [1] and in experiment [3] was 100 to 1000 nM in each case. For the same compound, the EC50 in experiment [2] lay within 100 to 1000 nM.

Turning to `CC[C@@H]1CN(Cc2cccc(-c3cccc(-n4ncc(C(=O)O)c4[C@H]4C[C@@H]4c4cn(C(C)C)nn4)c3)c2)Cc2ccccc2O1` (racemic) [Example 128, 1-(3′-(((R)-2-ethyl-2,3-dihydrobenzo[f][1,4]oxazepin-4(5H)-yl)methyl)-[1,1′-biphenyl]-3-yl)-5-((1,2-trans)-2-(1-isopropyl-1H-1,2,3-triazol-4-yl)cyclopropyl)-1H-pyrazole-4-carboxylic Acid], the IC50 in experiment [1] is < 10 nM; in experiment [3] it was 10 to 100 nM. Besides, the EC50 in experiment [2] is 100 to 1000 nM.

For `CC[C@@H]1CN(Cc2cccc(-c3cccc(-n4ncc(C(=O)O)c4[C@@H]4C[C@H]4c4cn(C)nn4)c3)c2)S(=O)(=O)c2cccnc2O1` (racemic) [Example 138, 1-(3′-(((R)-4-ethyl-1,1-dioxido-3,4-dihydro-2H-pyrido[2,3-b][1,4,5]oxathiazepin-2-yl)methyl)-[1,1′-biphenyl]-3-yl)-5-((1,2-trans)-2-(1-methyl-1H-1,2,3-triazol-4-yl)cyclopropyl)-1H-pyrazole-4-carboxylic acid], the IC50 in experiment [1] is < 10 nM; in experiment [3], 10 to 100 nM. Further, the EC50 in experiment [2] was 1000 to 10000 nM.

As to `CN1CCN(Cc2cccc(-c3cccc(-n4ncc(C(=O)O)c4[C@@H]4C[C@H]4c4cn(C)nn4)c3)c2)S(=O)(=O)c2ccccc21` (racemic) [Example 140, 1-(3′-((5-methyl-1,1-dioxido-4,5-dihydrobenzo[f][1,2,5]thiadiazepin-2(3H)-yl)methyl)-[1,1′-biphenyl]-3-yl)-5-((1,2- trans)-2-(1-methyl-1H-1,2,3-triazol-4-yl)cyclopropyl)-1H-pyrazole-4-carboxylic acid], the IC50 in experiment [1] and in experiment [3] was 10 to 100 nM throughout. Further, the EC50 in experiment [2] was in the range of 1000 to 10000 nM.

With `Cn1cc([C@@H]2C[C@H]2c2c(C(=O)O)cnn2-c2cccc(-c3cccc(S(=O)(=O)N4Cc5ccccc5OC(C)(C)C4)c3)c2)nn1` (racemic) [Example 141, 1-(3′-((2,2-Dimethyl-2,3-dihydrobenzo[f][1,4]oxazepin-4(5H)-yl)sulfonyl)-[1,1′-biphenyl]-3-yl)-5-((1,2-trans)-2-(1-methyl-1H-1,2,3-triazol-4-yl)cyclopropyl)-1H-pyrazole-4-carboxylic Acid], the IC50 in experiment [1] and in experiment [3] was 10 to 100 nM in each case. Also, the EC50 in experiment [2] lay within 100 to 1000 nM.

As to `CCCC1CCCCN1S(=O)(=O)c1cccc(-c2cccc(-n3ncc(C(=O)O)c3[C@@H]3C[C@H]3c3cn(C)nn3)c2)c1` (mixture of isomers) [Example 142, 5-((1,2-trans)-2-(1-Methyl-1H-1,2,3-triazol-4-yl)cyclopropyl)-1-(3′-((2-propylpiperidin-1-yl)sulfonyl)-[1,1′-biphenyl]-3-yl)-1H-pyrazole-4-carboxylic Acid], the IC50 in experiment [1] and in experiment [3] was 10 to 100 nM in each case. In addition, the EC50 in experiment [2] lay within 100 to 1000 nM.

As for `Cn1cc([C@@H]2C[C@H]2c2c(C(=O)O)cnn2-c2cccc(-c3cccc(S(=O)(=O)N4CCCCC4)c3)c2)nn1` (racemic) [Example 143, 5-((1,2-trans)-2-(1-Methyl-1H-1,2,3-triazol-4-yl)cyclopropyl)-1-(3′-(piperidin-1-ylsulfonyl)-[1,1′-biphenyl]-3-yl)-1H-pyrazole-4-carboxylic Acid], the IC50 in experiment [1] and in experiment [3] was 10 to 100 nM each time. In experiment [2], the EC50 lay in the range of 100 to 1000 nM.

`CC(Oc1cccc(-c2cccc(-n3ncc(C(=O)O)c3[C@H]3C[C@@H]3c3cn(C)nn3)c2)c1)[C@H]1CC[C@H](C(F)(F)F)CC1` (mixture of isomers) [Example 180, 5-((1,2-trans)-2-(1-Methyl-1H-1,2,3-triazol-4-yl)cyclopropyl)-1-(3′-((R)-1-((1R,4R)-4-(trifluoromethyl)cyclohexyl)ethoxy)-[1,1′-biphenyl]-3-yl)-1H-pyrazole-4-carboxylic acid]: the IC50 in experiment [1] was in the range of 10 to 100 nM; in experiment [3], 100 to 1000 nM. Further, the half-maximal effective concentration (EC50) in experiment [2] was 1 to 10 nM.

For `CC(Oc1cccc(-c2cc(O)cc(-n3ncc(C(=O)O)c3[C@H]3C[C@@H]3c3cn(C)nn3)c2)c1)C1CCCCC1` (mixture of isomers) [Example 194], the IC50 in experiment [1] fell in the range of 10 to 100 nM; in experiment [3], 100 to 1000 nM. In experiment [2], the EC50 lay in the range of 100 to 1000 nM.

Take `CC(Oc1cccc(-c2cccc(-n3ncc(C(=O)O)c3[C@H]3C[C@@H]3c3cn(C(C)C)nn3)c2)c1)C1CCCCC1` (mixture of isomers) [Example 195, 1-(3′-(1-cyclohexylethoxy)-[1,1′-biphenyl]-3-yl)-5-((1,2-trans)-2-(1-isopropyl-1H-1,2,3-triazol-4-yl)cyclopropyl)-1H-pyrazole-4-carboxylic acid]: the IC50 was 10 to 100 nM in experiment [1] and 100 to 1000 nM in experiment [3]. The EC50 in experiment [2] fell in the range of 10 to 100 nM.

`CCC[C@@H]1CCCCN1C(=O)c1cccc(-c2cccc(-n3ncc(C(=O)O)c3[C@H]3C[C@@H]3c3cn(C(C)C)nn3)c2)c1` (racemic) [Example 200]: the results for the IC50 in experiment [1] and in experiment [3] were < 10 nM and 10 to 100 nM, respectively. Also, the EC50 in experiment [2] (BEAS-2B, 48 h) lay within 100 to 1000 nM.
